Data as given in article PMC4113009, “Dihydroisoxazole inhibitors of Anopheles gambiae seminal transglutaminase AgTG3” (Malaria Journal, 2014).

Tests used:
AgTG3 = AgTG3 (Anopheles gambiae, UniProt D2K8K8); test: AgTG3 plugin cross-linking assay (SDS-PAGE, FITC-CAD); assay type: biochemical; conditions: 100 μM inhibitor, 5 mM CaCl2, intensity of high MW bands
Description: Recombinant AgTG3 was pre-incubated with 100 μM inhibitors overnight at room temperature. AgTG3, with and without pretreatment with inhibitors (1 μg), was added to plugin-C (20 μg) and 0.5 mM FITC-cadaverine (FITC-CAD) in 25 mM HEPES, pH 7.5, 10 mM CaCl2, 1 mM DTT. The reaction was incubated at room temperature for 2 h and quenched by heat denaturation of the proteins in the presence of Laemmli buffer. The extent of cross-linking was analysed by sodium dodecyl sulphate-polyacrylamide gel electrophoresis (SDS-PAGE). The gel was scanned using Alpha Imager 2200 software.
Additional assays were performed to examine whether compounds 1 and 3 would inhibit the cross-linking of plugin-C by AgTG3 in solution, with FITC-CAD for fluorescent detection of plugin-C. Results were assessed by SDS/PAGE and UV illumination to detect FITC-CAD (Figure 7). […] In the presence of enzyme, substrate and calcium a ladder of fluorescent bands of increasing molecular weight (MW) is observed (lane 4), corresponding to cross-linked oligomers of plugin also labeled by FITC-CAD. […] However, the levels of AgTG3 in solution assays are higher in the cross-linking assay than the primary screen. The levels of plugin-C were also higher, which competes with slow-binding irreversible inhibitors such as 1 and 3 for the active site of AgTG3.
Figure 7 Inhibition of plugin cross-linking by DHI inhibitors. Fluorescent image of SDS-PAGE for FITC-cadaverine labeling and cross-linking of plugin by AgTG3. Lanes (1–4): (1) AgTG3, (2) Plugin-C, (3) AgTG3 and plugin-C, (4) AgTG3, plugin-C, and 5 mM CaCl2. Lanes (5–8): AgTG3, plugin-C, 5 mM CaCl2 and (5) 10 mM EDTA, (6) 50 mM IA, (7) 100 μM 1, (8) 100 μM 3. (below) Coomassie stain indicating relative levels of monomeric Plugin-C.

[1] = system: Anopheles gambiae G3 strain mosquitoes; test: Anopheles gambiae laboratory mating assay (mating plug transfer); assay type: in vivo
Description: Anopheles gambiae G3 strain mosquitoes from a laboratory colony were reared using standard conditions (26–28°C, 65–80% relative humidity, 12 h/12 h Light/Darkness (L:D) photoperiod). Mosquitoes were sexed as pupae and adult males and females were allowed to emerge in separate cages to ensure their status as virgins. Three-day-old virgin males were injected with 138 nl of 100 μM of inhibitor diluted in 5% DMSO, or with 138 nl of a 5% DMSO solution as a control. Mating experiments were performed four days after eclosion as described previously and couples were captured in copula. RNAi experiments were performed as previously described. Mated females were dissected within two hours of mating to determine the presence of the mating plug in their atrium.
Finally, A. gambiae laboratory mating assays were performed to test if the DHI inhibitors identified in the pilot screen could inhibit male transfer of the mating plug. Compound 3, 100 μM in DMSO, was administered to male mosquitoes by intrathoracic injection. Injected males were mated with virgin females, and their ability to transfer a mating plug to females was assessed (Table 1). […] Thus, injection of males with AgTG3 inhibitor 3 is at least as effective as injection of dsRNA to inhibit mating plug formation in A. gambiae males.

human caspase-1 = target: T1, human caspase-1 (Homo sapiens, UniProt P29466); test: Cysteine protease inhibition assay, caspase-1 (Ac-YVAD-pNA); assay type: biochemical; conditions: 3 at 100 μM, compared to a DMSO control, chromogenic assay
T1 construct: purchased Abcam
T1 sequence (P29466 120-297 limits assumed): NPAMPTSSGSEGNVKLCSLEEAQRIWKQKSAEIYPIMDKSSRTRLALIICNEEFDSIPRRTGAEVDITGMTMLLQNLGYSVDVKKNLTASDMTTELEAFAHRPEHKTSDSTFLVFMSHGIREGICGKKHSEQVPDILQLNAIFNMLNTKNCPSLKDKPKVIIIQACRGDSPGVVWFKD
T1 sequence (P29466 317-404 limits assumed): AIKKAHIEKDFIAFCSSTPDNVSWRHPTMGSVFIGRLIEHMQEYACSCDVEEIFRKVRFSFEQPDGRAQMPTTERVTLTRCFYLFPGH
Description: The activity of caspase-1 was determined by use of chromogenic substrate Ac-YVAD-pNA (Enzo Life Sciences, NY, USA). The assay was performed by adding 45 μL of 1 Unit caspase-1 (Abcam, MA, USA) and 5 μL of Ac-YVAD-pNA (final concentration, 5 μM) to 50 μL assay buffer (50 mM HEPES pH 7.4, 10 mM DTT, 1 mM EDTA, 0.1% CHAPS, 20% glycerol). Substrate cleavage after 1 h incubation at 37°C was measured by […] absorbance at 400 nm in a benchtop UV/Vis spectrophotometer (UV1800, Shimadzu, Kyoto, Japan).
Transglutaminases and cysteine proteases have a similar catalytic mechanism involving an active site cysteine and formation of a thioacyl intermediate. […] To test this hypothesis, the inhibition of two cysteine proteases, human caspase-1 and recombinant tobacco etch virus (TEV) protease by 3 at 100 μM were tested using a chromogenic and SDS-PAGE assay, respectively (Figure 9). […] Neither human caspase-1 nor TEV are endogenous proteins in A. gambiae, which may well contain other endogenous targets of 1–3, not least the two other transglutaminases in the A. gambiae genome.

Sequence of AgTG3 (D2K8K8 entry or part of it): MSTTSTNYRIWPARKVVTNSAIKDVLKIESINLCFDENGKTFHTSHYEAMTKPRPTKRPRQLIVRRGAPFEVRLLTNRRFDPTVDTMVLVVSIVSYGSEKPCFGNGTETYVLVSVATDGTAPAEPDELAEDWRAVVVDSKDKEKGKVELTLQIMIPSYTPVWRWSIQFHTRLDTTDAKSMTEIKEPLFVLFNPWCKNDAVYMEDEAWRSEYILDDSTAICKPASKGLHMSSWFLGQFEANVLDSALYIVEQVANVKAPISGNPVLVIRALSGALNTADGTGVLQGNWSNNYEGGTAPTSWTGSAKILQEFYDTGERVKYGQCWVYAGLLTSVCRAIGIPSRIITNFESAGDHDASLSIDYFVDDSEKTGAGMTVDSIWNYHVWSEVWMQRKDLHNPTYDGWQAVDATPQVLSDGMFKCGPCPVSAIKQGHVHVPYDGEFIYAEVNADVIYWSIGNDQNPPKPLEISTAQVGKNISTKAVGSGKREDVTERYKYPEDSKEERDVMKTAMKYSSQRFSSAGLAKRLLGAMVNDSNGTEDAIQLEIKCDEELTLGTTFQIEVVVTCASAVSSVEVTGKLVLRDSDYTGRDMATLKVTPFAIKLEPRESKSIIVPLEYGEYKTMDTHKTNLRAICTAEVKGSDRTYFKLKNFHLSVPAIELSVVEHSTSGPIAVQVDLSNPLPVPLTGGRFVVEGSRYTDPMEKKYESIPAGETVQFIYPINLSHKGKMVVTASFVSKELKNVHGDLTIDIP

Which results are given for `O=C(N[C@@H](Cc1c[nH]c2ccccc12)C(=O)NC[C@@H]1CC(Br)=NO1)OCc1cnc2ccccc2c1`?
Inhibition of plugin-C cross-linking by AgTG3 (AgTG3): to a lesser extent; Reduction in transfer of the mating plug ([1]; intrathoracic injection of males): 15%; Mating plug transferred (number of females) ([1]; males injected intrathoracically (3: 138 nl of 100 μM; dsRNA as ref 39), N 75 (3), 77 (dsAgTG3)): 64; No plug transferred (number of females) ([1]; males injected intrathoracically (3: 138 nl of 100 μM; dsRNA as ref 39), N 75 (3), 77 (dsAgTG3), three independent experiments): 11; Females that failed to receive a mating plug ([1]; males injected intrathoracically, DMSO control 3%, dsLacZ control 2%): 15%; Ill effect of injection on males ([1]; males injected with 3): no obvious ill effect from wounding; Inhibition of caspase-1 (human caspase-1): no inhibition of the protease
